From ChEMBL document CHEMBL1201862, “PubChem BioAssay data set” (2004) come the findings set out here.

Calls of active or inactive are those of the source.

In experiment [1] the target is T1, Exodeoxyribonuclease V (Escherichia coli (strain K12), UniProt P04993+P07648+P08394).
T1 sequence (P04993 whole entry): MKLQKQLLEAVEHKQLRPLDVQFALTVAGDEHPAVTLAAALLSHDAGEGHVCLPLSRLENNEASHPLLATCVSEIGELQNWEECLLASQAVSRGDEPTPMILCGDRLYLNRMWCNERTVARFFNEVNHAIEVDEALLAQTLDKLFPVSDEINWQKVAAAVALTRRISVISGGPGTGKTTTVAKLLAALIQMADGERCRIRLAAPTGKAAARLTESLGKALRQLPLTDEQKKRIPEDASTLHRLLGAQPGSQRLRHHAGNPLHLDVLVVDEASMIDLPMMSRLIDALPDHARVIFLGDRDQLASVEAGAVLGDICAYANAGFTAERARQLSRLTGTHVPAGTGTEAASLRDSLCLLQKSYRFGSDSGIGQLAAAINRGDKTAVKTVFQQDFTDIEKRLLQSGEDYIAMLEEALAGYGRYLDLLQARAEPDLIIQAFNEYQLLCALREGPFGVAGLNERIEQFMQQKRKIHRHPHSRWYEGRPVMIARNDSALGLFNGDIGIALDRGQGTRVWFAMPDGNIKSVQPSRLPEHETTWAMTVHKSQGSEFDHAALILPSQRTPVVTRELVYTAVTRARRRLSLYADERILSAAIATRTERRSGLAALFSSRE
T1 sequence (P07648 whole entry): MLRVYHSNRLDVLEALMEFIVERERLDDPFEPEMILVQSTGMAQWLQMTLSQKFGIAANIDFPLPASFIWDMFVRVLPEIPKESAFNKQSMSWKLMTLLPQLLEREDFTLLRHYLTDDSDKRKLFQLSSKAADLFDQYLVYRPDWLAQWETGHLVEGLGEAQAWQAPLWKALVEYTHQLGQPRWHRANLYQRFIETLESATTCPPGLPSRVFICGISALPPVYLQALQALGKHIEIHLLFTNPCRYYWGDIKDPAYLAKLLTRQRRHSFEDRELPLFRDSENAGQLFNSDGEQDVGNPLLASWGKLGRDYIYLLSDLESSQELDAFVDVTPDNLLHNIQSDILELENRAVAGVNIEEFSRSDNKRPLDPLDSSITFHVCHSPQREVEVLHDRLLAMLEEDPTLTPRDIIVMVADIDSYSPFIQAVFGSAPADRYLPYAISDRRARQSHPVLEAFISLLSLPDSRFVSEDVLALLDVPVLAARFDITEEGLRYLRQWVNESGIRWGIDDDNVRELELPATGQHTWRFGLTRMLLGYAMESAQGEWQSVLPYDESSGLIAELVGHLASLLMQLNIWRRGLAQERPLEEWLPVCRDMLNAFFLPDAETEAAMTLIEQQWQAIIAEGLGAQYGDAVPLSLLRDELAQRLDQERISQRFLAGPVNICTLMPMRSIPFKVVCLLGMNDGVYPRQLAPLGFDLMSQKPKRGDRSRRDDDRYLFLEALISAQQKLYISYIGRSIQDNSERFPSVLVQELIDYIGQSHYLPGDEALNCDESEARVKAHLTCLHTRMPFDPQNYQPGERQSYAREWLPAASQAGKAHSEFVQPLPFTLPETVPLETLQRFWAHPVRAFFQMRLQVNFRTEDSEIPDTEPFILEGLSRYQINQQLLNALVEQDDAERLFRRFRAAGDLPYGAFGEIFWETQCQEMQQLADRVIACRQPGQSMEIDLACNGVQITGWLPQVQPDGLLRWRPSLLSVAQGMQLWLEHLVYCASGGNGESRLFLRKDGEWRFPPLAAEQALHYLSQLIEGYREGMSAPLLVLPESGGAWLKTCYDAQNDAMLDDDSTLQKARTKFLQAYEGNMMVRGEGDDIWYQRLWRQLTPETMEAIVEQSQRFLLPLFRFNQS
T1 sequence (P08394 whole entry): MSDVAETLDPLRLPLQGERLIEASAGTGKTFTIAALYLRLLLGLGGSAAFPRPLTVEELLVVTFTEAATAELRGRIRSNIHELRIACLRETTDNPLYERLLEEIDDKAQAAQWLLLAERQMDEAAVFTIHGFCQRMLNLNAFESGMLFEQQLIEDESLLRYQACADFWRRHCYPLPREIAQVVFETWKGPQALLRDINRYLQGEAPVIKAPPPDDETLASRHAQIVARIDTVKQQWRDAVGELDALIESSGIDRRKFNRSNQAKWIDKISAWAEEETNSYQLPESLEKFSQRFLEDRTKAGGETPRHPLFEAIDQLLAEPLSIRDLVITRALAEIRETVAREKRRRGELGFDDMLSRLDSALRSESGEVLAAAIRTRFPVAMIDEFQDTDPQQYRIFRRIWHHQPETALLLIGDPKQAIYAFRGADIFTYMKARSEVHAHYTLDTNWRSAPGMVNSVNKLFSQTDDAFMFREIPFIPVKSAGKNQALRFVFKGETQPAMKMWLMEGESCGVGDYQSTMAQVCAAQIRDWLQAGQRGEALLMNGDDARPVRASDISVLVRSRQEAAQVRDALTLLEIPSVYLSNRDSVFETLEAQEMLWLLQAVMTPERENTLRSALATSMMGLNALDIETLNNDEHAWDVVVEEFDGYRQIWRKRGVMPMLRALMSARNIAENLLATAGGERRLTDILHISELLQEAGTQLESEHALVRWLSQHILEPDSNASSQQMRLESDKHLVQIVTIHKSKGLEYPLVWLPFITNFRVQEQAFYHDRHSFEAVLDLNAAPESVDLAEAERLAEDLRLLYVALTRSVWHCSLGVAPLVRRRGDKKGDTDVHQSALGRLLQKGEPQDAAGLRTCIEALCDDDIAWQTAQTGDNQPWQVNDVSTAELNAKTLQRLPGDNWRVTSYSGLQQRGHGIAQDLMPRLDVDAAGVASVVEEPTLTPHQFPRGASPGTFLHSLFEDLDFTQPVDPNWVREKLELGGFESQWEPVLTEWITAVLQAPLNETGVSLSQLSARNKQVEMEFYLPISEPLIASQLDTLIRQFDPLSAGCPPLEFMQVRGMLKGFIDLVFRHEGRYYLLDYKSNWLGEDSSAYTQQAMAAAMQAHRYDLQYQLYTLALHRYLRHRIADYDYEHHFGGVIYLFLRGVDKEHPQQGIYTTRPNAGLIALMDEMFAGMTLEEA
Briefly: E. coli RecBCD inhibitors, dose response, counter-screen for AddAB inhibitor project, absorbance, V66 E. coli, mutant T4 phage (AID 492957). The class given is functional, cell-based, Escherichia coli str. K-12 substr. MG1655. (A counterscreen serves to expose hits that act by an unwanted route or on another target.)

A short description of experiment [2]: Counterscreen for AddAB inhibitors: absorbance-based bacterial cell-based high throughput dose response assay for inhibitors of bacterial viability. [Related pubchem assays (depositor defined):AID435030, AID449728, AID449731, AID488942, AID488955, AID488956]. The class given is functional.
Experiment [3] concerns the target DNA dC->dU-editing enzyme APOBEC-3A (Homo sapiens, UniProt P31941). Briefly: Dose Response confirmation of small molecule APOBEC3A DNA Deaminase Inhibitors via a fluorescence-based single-stranded DNA deaminase assay. [Related pubchem assays (depositor defined):AID493011, AID493024]. The class given is functional.
Experiment [4] has as its target DNA dC->dU-editing enzyme APOBEC-3G (Homo sapiens, UniProt Q9HC16). Format: functional.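 Note: Dose-response counterscreen measuring inhibition of APOBEC3G DNA deaminase activity, run while confirming APOBEC3A inhibitors.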
The nature of experiment [5]: microbe, parasite or virus in culture. The class given is functional. Conditions: Mycobacterium tuberculosis.
Experiment [6] deals with T2, Short transient receptor potential channel 4 (Mus musculus, UniProt Q9QUQ5).
T2 sequence (Q9QUQ5 whole entry): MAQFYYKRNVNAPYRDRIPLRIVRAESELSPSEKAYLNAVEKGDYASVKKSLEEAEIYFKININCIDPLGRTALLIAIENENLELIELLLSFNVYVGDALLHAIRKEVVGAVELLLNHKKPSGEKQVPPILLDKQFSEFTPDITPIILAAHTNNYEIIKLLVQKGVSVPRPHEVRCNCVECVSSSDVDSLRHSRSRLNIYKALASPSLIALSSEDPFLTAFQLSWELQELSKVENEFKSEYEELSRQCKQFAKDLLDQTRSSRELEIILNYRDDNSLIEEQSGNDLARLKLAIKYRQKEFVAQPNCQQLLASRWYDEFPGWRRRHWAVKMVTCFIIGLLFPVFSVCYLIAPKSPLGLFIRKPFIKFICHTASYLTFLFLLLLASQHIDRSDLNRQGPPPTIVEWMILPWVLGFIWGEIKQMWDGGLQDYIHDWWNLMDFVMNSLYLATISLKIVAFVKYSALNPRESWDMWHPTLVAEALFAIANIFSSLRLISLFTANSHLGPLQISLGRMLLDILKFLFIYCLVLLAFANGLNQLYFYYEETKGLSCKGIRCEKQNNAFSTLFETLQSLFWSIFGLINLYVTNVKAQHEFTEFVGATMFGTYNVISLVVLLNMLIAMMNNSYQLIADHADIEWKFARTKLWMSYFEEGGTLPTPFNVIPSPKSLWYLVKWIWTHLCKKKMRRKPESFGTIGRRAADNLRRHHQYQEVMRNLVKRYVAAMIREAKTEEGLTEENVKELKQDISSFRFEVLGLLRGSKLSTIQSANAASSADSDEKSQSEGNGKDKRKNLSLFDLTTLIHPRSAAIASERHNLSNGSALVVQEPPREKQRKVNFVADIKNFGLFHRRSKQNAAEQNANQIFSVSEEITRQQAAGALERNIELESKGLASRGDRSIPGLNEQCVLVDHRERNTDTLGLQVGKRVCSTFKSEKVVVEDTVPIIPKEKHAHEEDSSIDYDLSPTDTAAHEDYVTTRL
In words: mouse TRPC4 channel activators, dose response, cell-based, HEK293 TRPC4/mu-opioid, Fluo-4 calcium (AID 434937). The class given is functional.

Experiment [7] has as its target Voltage-dependent T-type calcium channel subunit alpha-1H (Homo sapiens, UniProt O95180). Format: functional.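 Note: channel activity triggered by adding a high calcium stimulation buffer.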
For experiment [8], the target named is T3, Cytochrome P450 1A2 (Homo sapiens, UniProt P05177).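 Note: PubChem cytochrome P450 panel assay, CYP1A2 panel member.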
T3 sequence (P05177 whole entry): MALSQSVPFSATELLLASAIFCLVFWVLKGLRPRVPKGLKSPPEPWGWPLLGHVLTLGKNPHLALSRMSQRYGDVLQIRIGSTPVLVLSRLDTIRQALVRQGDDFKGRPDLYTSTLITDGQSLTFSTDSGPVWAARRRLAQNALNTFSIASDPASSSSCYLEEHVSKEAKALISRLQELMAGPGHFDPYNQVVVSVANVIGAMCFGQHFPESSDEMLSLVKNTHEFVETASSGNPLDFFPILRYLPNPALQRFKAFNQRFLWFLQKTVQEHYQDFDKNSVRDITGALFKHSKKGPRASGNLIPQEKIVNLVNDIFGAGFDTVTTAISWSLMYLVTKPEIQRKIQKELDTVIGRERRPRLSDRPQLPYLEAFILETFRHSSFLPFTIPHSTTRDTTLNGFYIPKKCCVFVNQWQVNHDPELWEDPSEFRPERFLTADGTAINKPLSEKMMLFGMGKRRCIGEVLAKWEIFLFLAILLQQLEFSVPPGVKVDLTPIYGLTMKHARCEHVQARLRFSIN

Experiment [9] has as its target Cytochrome P450 3A4 (Homo sapiens, UniProt P08684).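 Note: CYP3A4 tested as one member of a cytochrome P450 panel screen.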
Experiment [10] deals with Heat shock protein HSP 90-alpha (Homo sapiens, UniProt P07900). Format: functional, organism-based.
Experiment [11] concerns the target T2, Short transient receptor potential channel 4. Briefly: mouse TRPC4 channel inhibitors, dose response, cell-based, HEK293 TRPC4/mu-opioid, Fluo-4 calcium (AID 434942).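 Note: potency of inhibitors blocking the TRPC4 calcium response.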 Format: functional.

DNA dC->dU-editing enzyme APOBEC-3G, sequence (Q9HC16 whole entry): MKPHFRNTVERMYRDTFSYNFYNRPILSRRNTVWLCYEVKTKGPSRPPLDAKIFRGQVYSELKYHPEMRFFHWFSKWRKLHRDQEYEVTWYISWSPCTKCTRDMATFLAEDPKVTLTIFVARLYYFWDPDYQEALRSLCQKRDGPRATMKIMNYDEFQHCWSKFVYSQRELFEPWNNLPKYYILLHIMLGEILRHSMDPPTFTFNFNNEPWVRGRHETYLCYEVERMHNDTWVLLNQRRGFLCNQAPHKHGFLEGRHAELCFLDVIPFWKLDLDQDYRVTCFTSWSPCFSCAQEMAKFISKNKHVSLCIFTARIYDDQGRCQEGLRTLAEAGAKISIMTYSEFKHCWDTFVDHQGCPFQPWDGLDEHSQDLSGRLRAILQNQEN
DNA dC->dU-editing enzyme APOBEC-3A, sequence (P31941 whole entry): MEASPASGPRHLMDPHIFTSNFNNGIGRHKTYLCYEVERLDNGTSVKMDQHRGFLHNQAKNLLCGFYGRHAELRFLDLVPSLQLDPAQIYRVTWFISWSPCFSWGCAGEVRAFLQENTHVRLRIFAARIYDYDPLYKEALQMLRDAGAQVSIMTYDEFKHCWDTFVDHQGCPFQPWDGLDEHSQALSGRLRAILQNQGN
Cytochrome P450 3A4, sequence (P08684 whole entry): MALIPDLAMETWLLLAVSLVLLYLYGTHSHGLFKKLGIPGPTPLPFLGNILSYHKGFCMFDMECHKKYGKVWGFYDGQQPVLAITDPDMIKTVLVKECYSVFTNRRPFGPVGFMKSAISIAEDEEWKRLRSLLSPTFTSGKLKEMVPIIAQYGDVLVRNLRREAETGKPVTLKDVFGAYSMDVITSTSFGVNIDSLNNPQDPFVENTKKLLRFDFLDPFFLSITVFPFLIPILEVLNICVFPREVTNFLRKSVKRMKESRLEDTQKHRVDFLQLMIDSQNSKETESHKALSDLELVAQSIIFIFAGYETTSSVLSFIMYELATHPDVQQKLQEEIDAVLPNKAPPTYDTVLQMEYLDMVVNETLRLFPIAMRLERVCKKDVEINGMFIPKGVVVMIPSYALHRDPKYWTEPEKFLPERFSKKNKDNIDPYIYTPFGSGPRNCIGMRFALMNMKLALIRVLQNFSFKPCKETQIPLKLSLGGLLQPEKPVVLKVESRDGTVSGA
Voltage-dependent T-type calcium channel subunit alpha-1H, sequence (O95180 whole entry): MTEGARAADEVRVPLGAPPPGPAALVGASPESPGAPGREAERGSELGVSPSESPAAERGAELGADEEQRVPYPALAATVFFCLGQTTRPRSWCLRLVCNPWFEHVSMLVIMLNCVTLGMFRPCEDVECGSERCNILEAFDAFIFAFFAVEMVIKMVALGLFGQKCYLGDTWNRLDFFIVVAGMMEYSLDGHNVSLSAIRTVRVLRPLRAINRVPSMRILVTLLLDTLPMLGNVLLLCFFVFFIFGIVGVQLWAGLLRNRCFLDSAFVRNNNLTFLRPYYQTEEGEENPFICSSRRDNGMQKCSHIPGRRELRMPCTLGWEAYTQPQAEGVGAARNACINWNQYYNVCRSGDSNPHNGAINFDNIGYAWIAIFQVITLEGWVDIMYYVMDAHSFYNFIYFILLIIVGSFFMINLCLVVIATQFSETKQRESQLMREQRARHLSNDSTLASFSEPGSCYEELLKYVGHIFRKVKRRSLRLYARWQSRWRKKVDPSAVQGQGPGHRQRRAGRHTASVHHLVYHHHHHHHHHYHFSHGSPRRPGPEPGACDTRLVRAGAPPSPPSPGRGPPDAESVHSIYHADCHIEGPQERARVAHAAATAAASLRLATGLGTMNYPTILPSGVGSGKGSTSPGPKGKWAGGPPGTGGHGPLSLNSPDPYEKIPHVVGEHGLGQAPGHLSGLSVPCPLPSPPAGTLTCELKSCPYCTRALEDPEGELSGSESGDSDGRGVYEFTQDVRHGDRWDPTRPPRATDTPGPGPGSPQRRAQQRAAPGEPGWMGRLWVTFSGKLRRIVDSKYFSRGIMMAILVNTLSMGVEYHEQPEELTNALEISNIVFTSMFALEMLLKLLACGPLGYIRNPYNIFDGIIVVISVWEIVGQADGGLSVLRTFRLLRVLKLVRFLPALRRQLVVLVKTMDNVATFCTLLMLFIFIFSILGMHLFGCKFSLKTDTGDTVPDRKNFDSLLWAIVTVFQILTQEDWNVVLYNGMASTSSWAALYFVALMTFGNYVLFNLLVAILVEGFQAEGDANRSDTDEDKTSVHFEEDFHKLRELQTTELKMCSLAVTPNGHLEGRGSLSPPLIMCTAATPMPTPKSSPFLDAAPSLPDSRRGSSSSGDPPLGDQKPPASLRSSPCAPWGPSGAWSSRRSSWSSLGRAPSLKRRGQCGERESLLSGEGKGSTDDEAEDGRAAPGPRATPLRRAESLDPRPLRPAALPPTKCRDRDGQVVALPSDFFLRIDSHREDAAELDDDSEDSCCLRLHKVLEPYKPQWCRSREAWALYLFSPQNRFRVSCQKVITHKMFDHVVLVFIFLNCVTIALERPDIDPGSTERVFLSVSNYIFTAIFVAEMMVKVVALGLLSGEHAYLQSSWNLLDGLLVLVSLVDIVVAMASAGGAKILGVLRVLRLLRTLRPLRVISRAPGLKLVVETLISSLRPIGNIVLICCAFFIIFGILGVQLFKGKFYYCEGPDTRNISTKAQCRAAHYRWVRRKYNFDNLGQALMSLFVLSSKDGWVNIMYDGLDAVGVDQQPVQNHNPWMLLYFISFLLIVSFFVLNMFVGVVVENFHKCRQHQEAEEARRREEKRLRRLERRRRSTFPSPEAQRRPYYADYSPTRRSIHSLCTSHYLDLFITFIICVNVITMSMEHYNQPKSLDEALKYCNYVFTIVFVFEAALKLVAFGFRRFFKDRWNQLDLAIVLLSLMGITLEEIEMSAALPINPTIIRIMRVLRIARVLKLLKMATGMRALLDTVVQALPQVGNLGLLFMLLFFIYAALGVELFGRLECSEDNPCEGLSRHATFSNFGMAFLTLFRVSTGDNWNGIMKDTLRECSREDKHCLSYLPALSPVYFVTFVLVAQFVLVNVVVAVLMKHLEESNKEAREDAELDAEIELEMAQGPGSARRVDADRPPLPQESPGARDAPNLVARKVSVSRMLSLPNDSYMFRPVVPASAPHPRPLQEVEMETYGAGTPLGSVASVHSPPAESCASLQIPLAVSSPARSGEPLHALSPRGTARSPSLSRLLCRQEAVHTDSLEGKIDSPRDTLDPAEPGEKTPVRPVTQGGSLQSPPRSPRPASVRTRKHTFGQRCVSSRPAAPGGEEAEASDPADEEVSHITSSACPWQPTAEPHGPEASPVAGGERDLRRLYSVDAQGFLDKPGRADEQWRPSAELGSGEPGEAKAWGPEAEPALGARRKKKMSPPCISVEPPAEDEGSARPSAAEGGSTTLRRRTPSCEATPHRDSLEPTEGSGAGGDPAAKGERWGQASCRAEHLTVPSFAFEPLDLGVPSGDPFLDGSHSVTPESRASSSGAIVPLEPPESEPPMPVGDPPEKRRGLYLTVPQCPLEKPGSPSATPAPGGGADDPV

Take `COc1ccc(NC(=O)CSc2nnc(-c3ccc(F)cc3)o2)cn1`: the IC50 in [1] and in experiment [2] was > 119 µM (inactive) in each case.

On to `CCCCn1nc(NC(=O)COC)c2cc3ccc(C)cc3nc21`, for which the IC50 (in general, the midpoint of a concentration-inhibition curve) is 3.49 µM (active) in [3] and 5 µM (active) in experiment [4].

As for `O=C(Nc1nc2c(s1)CCCC2)C1CCCN1C(=O)c1cccs1` (configuration not stated), the IC50 is 10 µM (active) in experiment [3] and 15.8 µM (active) in experiment [4].

Take `CCC(C)NC(=O)c1cn(CC)c2cc(N3CCN(C(=O)c4ccco4)CC3)c(F)cc2c1=O` (configuration not stated): the CC50 in [5] was > 40 µM (active). Also, the IC50 in experiment [1] was 89.9 µM (inactive); in experiment [2], 22 µM (inactive).

In the case of `CCOc1ccccc1OCC(=O)Nc1cc(S(=O)(=O)N2CCCCC2)ccc1N1CCN(CC)CC1`, the IC50 is 5.85 µM (active) in experiment [3] and 6.44 µM (active) in experiment [4]. Also, the EC50 (as a rule, the midpoint of the concentration-response curve) in experiment [6] is 4.22 µM (active).

In the case of `COc1cc(OC)c(CN2CCC(Cc3ccccc3)CC2)cc1Br`, in experiment [6], the EC50 is 2.66 µM (active).

Consider `Cc1cc(Cl)ccc1N=C(S)NCc1ccccc1Cl`, for which the IC50 in [1] and in experiment [2] was > 119 µM (inactive) throughout.

For the compound `CC(C)c1ccc(CN(C(=O)C2COc3ccccc3O2)C2CCS(=O)(=O)C2)cc1` (configuration not stated), the EC50 in experiment [7] is 6.86 µM (active). Moreover, the AC50 (usually the concentration at which the activity in the assay is half-maximal) in [8] is 25.1 µM (inconclusive); in experiment [9], 28.2 µM (inconclusive).

As to `O=C(O)c1cn(-c2ccc(N3CCCC3)c(F)c2)c2c(F)c(F)c(F)cc2c1=O`, the IC50 in experiment [1] was > 119 µM (inactive); in [2], 64.9 µM (inactive). Further, in experiment [10], the AC50 was 4.37 µM (active).

`CN(C)C(CNC(=O)C1CCN(S(=O)(=O)c2cccc(C(F)(F)F)c2)CC1)c1ccccc1` (configuration not stated): the EC50 in experiment [11] was 0.421 µM (active); in [6] it was 0.376 µM (active).

With `Cc1ccc(C)c(OCCC(=O)OCC(=O)N2c3ccccc3NC(=O)C2(C)C)c1`, the values for the IC50 in experiment [3] and in experiment [4] were 11 µM (active) and 10.4 µM (active), respectively.

As to `Cc1cc(NS(=O)(=O)c2ccc(N)cc2)no1` [SULFAMETHOXAZOLE], the IC50 in experiment [1] is > 119 µM (inactive); in experiment [2], 29.2 µM (inactive).
